# From patent US20240315315A1, “COMPOSITION AND METHOD FOR SUPPRESSING PERCEPTION OF SMOKE OR VAPOR ODOR AND FOR SMOKING OR VAPING CESSATION” (University of Kentucky Research Foundation, priority 2023, published 2024)
# “Also recorded” adds a separate entry of the source. Like-named read-outs stand apart in the source and are kept apart here.
# Experiments:
# [1] = test system: perception of 1-pentanethiol; experiment: Split-nostril testing with 1-pentanethiol (physical vs dichorhinic mixtures); type: in vivo, human; details: for sex comparison of the effect on perceived intensity of 1-pentanethiol: males vs females, citronellal as physical mixture, pentanol as dichorhinic mixture; for perceived pleasantness of mixtures with 1-pentanethiol: isointense amounts mixed in air (N=29)
# Method: In all experiments each subject was presented with odor samples in a unique random order. Subjects were instructed to take a single inhalation of each sample. Samples were separated by rest periods of at least 50 sec to minimize adaptation. Target odorants (1-pentanethiol or guaiacol) were sampled thrice by each subject prior to the initiation of an experiment. Dilutions of odorants (0.1-, 0.01-, 0.001-, and 0.0001-fold) were prepared in 10 ml of mineral oil in 250 ml brown Boston round bottles. To mimic the conditions of split-nostril testing, each dilution bottle was paired with a bottle containing 10 ml of mineral oil, with both bottles connected to the same Teflon nozzle. Control samples consisted of pairs of bottles containing 10 ml of mineral oil connected to a Teflon nozzle. Subjects simultaneously sniffed from two nozzles, either an odor dilution through one nostril and a control through the other nostril, or controls through both nostrils. Each subject (n=7-9) sniffed a unique random order of dilutions, rating intensity on a scale of 1-10. Dilutions that gave average intensities in the range of 4-5 were selected. Subjects simultaneously sniffed from two pairs of bottles, one pair per nostril. Treatment samples included no odorant controls and target odorants (1-pentanethiol or guaiacol) presented alone or mixed in air with masking odorants. Subjects experienced every sample four times, balanced so that pairings of odors were given twice per nostril, with the exception of the no odor control (10 ml of mineral oil in each bottle), which was presented twice. Subjects rated intensity on a gLMS scale (0-100) via a graphical user interface on a computer, followed by rating pleasantness on a linear scale of −10 to +10. Redjade software was used to produce unique random orders for each subject and to collect intensity and pleasantness ratings. Exclusion criteria were ratings of 0 on >25% of treatments (to exclude hyposmic subjects) and a Pearson correlation coefficient of <35% on test-retest across all treatments. To discriminate peripheral versus CNS odor interaction effects a split-nostril experiment was performed where odorants delivered simultaneously to different nostrils (dichorhinic mixture) can only affect perception via central nervous system (CNS) circuits versus odorants delivered together to the same nostril (physical mixture) where they can affect perception via both peripheral effects and central effects (FIG. 3A). Furthermore, by mixing the odorants in air there is an elimination of reduced volatilization of 1-pentanethiol as a cause of perception of reduced intensity.
# [2] = test system: perception of guaiacol; experiment: Preliminary screen of odorants with guaiacol (physical mixtures in air); type: in vivo, human
# Method: (§1) In all experiments each subject was presented with odor samples in a unique random order. Subjects were instructed to take a single inhalation of each sample. Samples were separated by rest periods of at least 50 sec to minimize adaptation. Target odorants (1-pentanethiol or guaiacol) were sampled thrice by each subject prior to the initiation of an experiment.
# (§2) Dilutions of odorants (0.1-, 0.01-, 0.001-, and 0.0001-fold) were prepared in 10 ml of mineral oil in 250 ml brown Boston round bottles. To mimic the conditions of split-nostril testing, each dilution bottle was paired with a bottle containing 10 ml of mineral oil, with both bottles connected to the same Teflon nozzle. Control samples consisted of pairs of bottles containing 10 ml of mineral oil connected to a Teflon nozzle. Subjects simultaneously sniffed from two nozzles, either an odor dilution through one nostril and a control through the other nostril, or controls through both nostrils. Each subject (n=7-9) sniffed a unique random order of dilutions, rating intensity on a scale of 1-10. Dilutions that gave average intensities in the range of 4-5 were selected.
# In preliminary screening only physical mixtures were tested. Air mixing was achieved by attaching pairs of 250 ml brown Boston round bottles, one containing the candidate antagonist odorant and the other the target odorant, to a single nozzle. Controls consisted of pairs of bottles, each containing 10 ml of mineral oil, connected to the same Teflon nozzle. Subjects simultaneously sniffed from two nozzles, either a physical mixture through one nostril and the control through the other nostril, or controls through both nostrils. Each sample was repeated so that each physical mixture was sniffed through the left and right nostrils. Each subject sniffed a unique random order of the samples, rating intensity on a scale of 1-10 using Google forms.
# (§3) Like 1-pentanethiol, guaiacol is a key odorant in cigarette smoke and is one of the most important components of a simple mimic of cigarette smoke odor. […] A split-nostril experiment was performed to test these hypotheses and determine whether effects were peripheral or central. […] It was confirmed that effects of the physical and dichorhinic mixtures differed by comparing within-subject responses (FIG. 5B).
# [3] = test system: perception of guaiacol; experiment: Split-nostril testing with guaiacol (physical vs dichorhinic mixtures); type: in vivo, human; details: for perceived pleasantness of mixtures with guaiacol: compared with guaiacol alone; for effect on perceived intensity of guaiacol: physical mixture (same nostril) vs dichorhinic mixture
# Method: as §1, §2
# Subjects simultaneously sniffed from two pairs of bottles, one pair per nostril. Treatment samples included no odorant controls and target odorants (1-pentanethiol or guaiacol) presented alone or mixed in air with masking odorants. Subjects experienced every sample four times, balanced so that pairings of odors were given twice per nostril, with the exception of the no odor control (10 ml of mineral oil in each bottle), which was presented twice. Subjects rated intensity on a gLMS scale (0-100) via a graphical user interface on a computer, followed by rating pleasantness on a linear scale of −10 to +10. Redjade software was used to produce unique random orders for each subject and to collect intensity and pleasantness ratings. Exclusion criteria were ratings of 0 on >25% of treatments (to exclude hyposmic subjects) and a Pearson correlation coefficient of <35% on test-retest across all treatments.
# as §3
# [4] = test system: perception of 1-pentanethiol; experiment: Preliminary screening for masking of 1-pentanethiol (solution mixtures on cotton balls, intensity and pleasantness ratings); type: in vivo; details: solution mixture screen, both odorants in the same cotton ball, human subjects (n=24)
# Source text: In all experiments each subject was presented with odor samples in a unique random order. Subjects were instructed to take a single inhalation of each sample. Samples were separated by rest periods of at least 50 sec to minimize adaptation. Target odorants (1-pentanethiol or guaiacol) were sampled thrice by each subject prior to the initiation of an experiment. Dilutions (0.1-, 0.01-, 0.001-, and 0.0001-fold) of candidate masking odorants and the key cigarette smoke odorant 1-pentanethiol were prepared in dimethyl sulfoxide. Subjects (5 male and 7 female) sniffed 0.4 ml volumes absorbed in cotton balls from 0.8 ml brown glass vials and rated intensity on a scale of 1-10. Dilutions that gave average intensities in the range of 4-5 were selected for screening tests in which subjects rated intensity on a scale of 1-100 using a paper form. Subjects also rated whether the overall odor of each sample was pleasant or unpleasant (a forced-choice test). Seventeen (17) odorants commonly used as general masking odors or previously tested as cigarette additives designed to improve the perceived pleasantness of cigarette smoke were screened. […] While efficient for screening odorants, the mixing approach used (soaking of both odorants into the same cotton ball) fails to implicate mechanism because it may allow three potential causes for perception of reduced intensity of a target odor: CNS effects where circuit interactions lead to perception of reduced intensity, peripheral effects such as receptor antagonism, and (potentially) reduced volatilization of 1-pentanethiol. Further experiments were required to determine which of these causes explain the effect of citronellal.
# [5] = dichorhinic mixture, odorants delivered to different nostrils
# [6] = physical mixture delivered to the same nostril, mixed in air
# [7] = listed as Methyl-2-methylbutyrate
smiles,measurement,setting,value
CCCCCS [1-pentanethiol],perceived pleasantness of the odorant alone,[1]; split-nostril experiment,moderately unpleasant
"C=CC(C)(O)CCC=C(C)C (centres unmarked) [Linalool, reference compound]",interaction with guaiacol (perceived intensity),[2],three largest interactions
same,perceived pleasantness of mixtures with guaiacol,[3],no effect of perceived pleasantness
"CCCC(O)CCC1C(C)CCCC1(C)C (centres unmarked) [Norlimbanol, reference compound]",interaction with guaiacol (perceived intensity),[2],three largest interactions
same,perceived pleasantness of mixtures with guaiacol,[3],no effect of perceived pleasantness
CC(C)=CCCC(C)CC=O (centres unmarked) [citronellal],effect on perceived intensity of 1-pentanethiol,[4],most effective at reducing the perceived intensity of 1-pentanethiol; also recorded: strongest effect
same,effect on perceived intensity of 1-pentanethiol,[4]; listed as Citronellal,most effective masking odor
same,effect on perceived intensity of 1-pentanethiol,[1]; [5],did not affect the perceived intensity of 1-pentanethiol
same,"within-subject comparison of perceived 1-pentanethiol, physical vs dichorhinic mixtures",[1]; female participants,showed no difference
same,"within-subject comparison of perceived 1-pentanethiol, physical vs dichorhinic mixtures",[1]; male participants,nearly all males perceived less 1-pentanethiol in physical mixtures
same,sex comparison of the effect on perceived intensity of 1-pentanethiol,[1],stronger in males than in females
same,effect on perceived intensity of 1-pentanethiol,[1]; [6],reduced the perceived intensity of 1-pentanethiol; also recorded: suppress perception
same,effect on perceived intensity of 1-pentanethiol,"[1]; physical mixture delivered to the same nostril, mixed in air, listed as Citronellal",decreases the perceived intensity of 1-pentanethiol only when delivered as a physical mixture
same,perceived pleasantness of mixtures with 1-pentanethiol,[1]; split-nostril experiment,improved pleasantness; also recorded: neither pleasant nor unpleasant on average; also recorded: alleviated
"CCOC(=O)C(C)CC (centres unmarked) [ethyl-2-methylbutyrate, Ethyl 2-methylbutyrate]",interaction with guaiacol (perceived intensity),[2],promising effects
"CCC(C)C(=O)OC (centres unmarked) [methyl-2-methylbutyrate, methyl 2-methylbutyrate]",interaction with guaiacol (perceived intensity),[2],promising effects
same,interaction with guaiacol (perceived intensity),[2]; [7],three largest interactions
same,perceived pleasantness of mixtures with guaiacol,[3],no effect of perceived pleasantness
same,effect on perceived intensity of guaiacol in a physical mixture,[3]; male participants (N=6),significant decrease
same,effect on perceived intensity of guaiacol,[3],"suppressed perception of guaiacol, but only when applied via the same nostril as a physical mixture; also recorded: suppress perception"
same,effect on perceived intensity of guaiacol,[3]; [7],decreases the perceived intensity of guaiacol
CCCCCO [pentanol],effect on perceived intensity of 1-pentanethiol,[4],no effect on perception of 1-pentanethiol
same,effect on perceived intensity of 1-pentanethiol,[1]; [5],increased the perceived intensity of 1-pentanethiol; also recorded: increases the perceived intensity of 1-pentanethiol only when delivered a dichorhinic mixture
same,effect on perceived intensity of 1-pentanethiol,"[1]; dichorhinic mixture, odorants delivered to different nostrils, listed as 1-pentanol",additive effect mediated centrally
same,sex comparison of perceived pleasantness of mixtures with 1-pentanethiol,[1]; females (N=19) vs males (N=10),less pleasant than did males; also recorded: more unpleasant than did males
same,sex comparison of the effect on perceived intensity of 1-pentanethiol,[1],"apparent in both sexes, but appeared slightly stronger in females"
same,effect on perceived intensity of 1-pentanethiol,[1]; [6],did not result in any reduction in the perceived intensity of 1-pentanethiol
same,"perceived pleasantness, dichorhinic vs physical mixtures with 1-pentanethiol",[1]; split-nostril experiment (N=29),less pleasant than physical mixtures; also recorded: more unpleasant than physical mixtures
same,perceived pleasantness of mixtures with 1-pentanethiol,[1]; split-nostril experiment,did not improve perceived pleasantness; also recorded: little affected
